Paper PMC7708037, “Targeting OGG1 arrests cancer cell proliferation by inducing replication stress” (Nucleic Acids Research, 2020)

What was measured:
Test in all cases: Resazurin viability, 5 days
CCRF-CEM = format: cell-based, human; conditions: Homo sapiens, 120 h, C, T-cell acute lymphoblastic leukemia
Protocol: (§1) Cells were seeded in 96- or 384-well plates and incubated for 3 days for combination experiments or 5 days for single-drug exposure experiments. Resazurin (R7017, SigmaAldrich) was added to a final concentration of 0.01 mg/ml resazurin and fluorescence was measured at ex530/em590 after incubation for 2, 4 or 6 h. Curves were fitted using XLfit software (IDBS) or Prism 8.0 (Graphpad Software), and EC50 values were determined.
(§2) Supplementary Table S1: Effect of OGG1 inhibitors on cancer and non-transformed cell lines.
(§3) Cell lines were incubated with a dilution series of the indicated compounds for 5 days, and viability
(§4) assessed with resazurin. EC50-values were calculated based on the resulting dose -response curves.
(§5) The number of independent experiments is indicated for each value.
(§6) C=cancer;N=non- Disease EC50 n= EC50 n= EC50 n=
(§7) transformed (µM) (µM) (µM)
A3 C T-cell acute lymphoblastic leukemia 10.0 12 7.9 7 9.8 5 […]
CCRF-CEM C T-cell acute lymphoblastic leukemia 13.0 5 10.5 2 7.9 2 […]

A3 = format: cell-based, human; conditions: Homo sapiens, 120 h, A3, C, T-cell acute lymphoblastic leukemia
Protocol: as §1, §2, §3, §4, §5, §6, §7

MEF Ogg1(-/-) = format: cell-based; conditions: 120 h, N, Non-transformed mouse embryonic fibroblast
Protocol: as §1, §2, §3, §4, §5, §6
(§8) transformed (µM) (µM) (µM) […]

T98G = format: cell-based, human; conditions: Homo sapiens, 120 h, C, Glioblastoma
Protocol: as §1, §2, §3, §4, §5, §6

U2OS = format: cell-based, human; conditions: Homo sapiens, 120 h, C, Osteosarcoma
Protocol: as §1, §2, §3, §4, §5, §6

HCT116 = format: cell-based, human; conditions: Homo sapiens, HCT-116, 120 h, HCT116, C, Colorectal carcinoma
Protocol: as §1, §2, §3, §4, §5, §6

CCD841 = format: cell-based, human; conditions: Homo sapiens, CCD-841, 120 h, CCD841, N, Non-transformed fibroblast
Protocol: as §1, §2, §3, §4, §5, §6

A498 = format: cell-based, human; conditions: Homo sapiens, 120 h, A498, C, Kidney carcinoma
Protocol: as §1, §2, §3, §4, §5, §6

786-0 = format: cell-based, human; conditions: Homo sapiens, 120 h, 786-0, C, Kidney adenocarcinoma
Protocol: as §1, §2, §3, §4, §5, §6

Raji = format: cell-based, human; conditions: Homo sapiens, 120 h, C, Burkitt's lymphoma
Protocol: as §1, §2, §3, §4, §5, §6

VH10 = format: cell-based, human; conditions: Homo sapiens, 120 h, VH10, N, Non-transformed fibroblast
Protocol: as §1, §2, §3, §4, §5, §6

HCT116+Chr3 = format: cell-based, human; conditions: Homo sapiens, 120 h, HCT116+Chr3, C, Colorectal carcinoma with WT Chr3
Protocol: as §1, §2, §3, §4, §5, §6

MOLT4 = format: cell-based, human; conditions: Homo sapiens, MOLT-4, 120 h, MOLT4, C, T-cell acute lymphoblastic leukemia
Protocol: as §1, §2, §3, §4, §5, §6

DU145 = format: cell-based, human; conditions: Homo sapiens, DU-145, 120 h, DU145, C, Prostate carcinoma
Protocol: as §1, §2, §3, §4, §5, §6

UO31 = format: cell-based, human; conditions: Homo sapiens, UO-31, 120 h, UO31, C, Kidney carcinoma
Protocol: as §1, §2, §3, §4, §5, §6

H460 = format: cell-based, human; conditions: Homo sapiens, NCI-H460, 120 h, H460, C, Large cell lung carcinoma
Protocol: as §1, §2, §3, §4, §5, §6

Rec1 = format: cell-based, human; conditions: Homo sapiens, 120 h, Rec1, C, B cell non-Hodgkin's lymphoma
Protocol: as §1, §2, §3, §4, §5, §6

SaOS2 = format: cell-based, human; conditions: Homo sapiens, SAOS-2, 120 h, SaOS2, C, Osteosarcoma
Protocol: as §1, §2, §3, §4, §5, §6

M059K = format: cell-based, human; conditions: Homo sapiens, 120 h, C, Glioblastoma
Protocol: as §1, §2, §3, §4, §5, §6

KG1a = format: cell-based, human; conditions: Homo sapiens, KG-1a, 120 h, C, Acute myelogenous leukemia
Protocol: as §1, §2, §3, §4, §5, §6

M059J = format: cell-based, human; conditions: Homo sapiens, 120 h, C, Glioblastoma
Protocol: as §1, §2, §3, §4, §5, §6

SW480 = format: cell-based, human; conditions: Homo sapiens, 120 h, SW480, C, Colorectal adenocarcinoma
Protocol: as §1, §2, §3, §4, §5, §6

BJ-Tert = format: cell-based, human; conditions: Homo sapiens, 120 h; BJ-Tert, N, Tert-Immortalized fibroblast; 5 days, resazurin; read-out: EC50
Protocol: as §1, §2, §3, §4, §5, §6

HT-29 = format: cell-based, human; conditions: Homo sapiens, 120 h, HT-29, C, Colorectal adenocarcinoma
Protocol: as §1, §2, §3, §4, §5, §6

PL-21 = format: cell-based, human; conditions: Homo sapiens, 120 h, PL-21, C, Acute myeloid leukemia
Protocol: as §1, §2, §3, §4, §5, §6

PC3 = format: cell-based, human; conditions: Homo sapiens, PC-3, 120 h, PC3, C, Prostate adenocarcinoma
Protocol: as §1, §2, §3, §4, §5, §6

HL-60 = format: cell-based, human; conditions: Homo sapiens, 120 h, HL-60, C, Acute promyelocytic leukemia
Protocol: as §1, §2, §3, §4, §5, §6

HeLa = format: cell-based, human; conditions: Homo sapiens, 120 h, C, Cervix adenomcarcinoma
Protocol: as §1, §2, §3, §4, §5, §6

MRC5 = format: cell-based, human; conditions: Homo sapiens, 120 h, MRC5, N, Non-transformed lung fibroblast
Protocol: as §1, §2, §3, §4, §5, §6

MV4-11 = format: cell-based, human; conditions: Homo sapiens, 120 h, MV4-11, C, Acute monocytic leukemia
Protocol: as §1, §2, §3, §4, §5, §6

Daudi = format: cell-based, human; conditions: Homo sapiens, 120 h, C, Burkitt's lymphoma
Protocol: as §1, §2, §3, §4, §5, §6

Jurkat = format: cell-based, human; conditions: Homo sapiens, 120 h, C, T-cell acute lymphoblastic leukemia
Protocol: as §1, §2, §3, §4, §5, §6, §8

BJ-Ras = format: cell-based, human; conditions: Homo sapiens, 120 h, C, RAS-transformed fibroblast
Protocol: as §1, §2, §3, §4, §5, §6, §8

LCL#2 = format: cell-based, human; conditions: Homo sapiens, 120 h, LCL#2, N, Non-transformed lymphoblastoid cell line
Protocol: as §1, §2, §3, §4, §5, §6, §8

Reh = format: cell-based, human; conditions: Homo sapiens, 120 h, C, Acute lymphocytic leukemia (non-T, non-B)
Protocol: as §1, §2, §3, §4, §5, §6, §8

LCL#1 = format: cell-based, human; conditions: Homo sapiens, 120 h, LCL#1, N, Non-transformed lymphoblastoid cell line
Protocol: as §1, §2, §3, §4, §5, §6, §8

ACHN = format: cell-based, human; conditions: Homo sapiens, 120 h, C, Kidney adenocarcinoma
Protocol: as §1, §2, §3, §4, §5, §6, §8

RFX393 = format: cell-based, human; conditions: Homo sapiens, 120 h, RFX393, C, Kidney carcinoma
Protocol: as §1, §2, §3, §4, §5, §6, §8

Row | EC50 (CCRF-CEM) [µM] | EC50 (U2OS) [µM] | EC50 (HCT116) [µM] | EC50 (786-0) [µM] | EC50 (Raji) [µM] | EC50 (HCT116+Chr3) [µM] | EC50 (MOLT4) [µM] | EC50 (DU145) [µM] | EC50 (H460) [µM] | SMILES | EC50 (A3) [µM] | EC50 (MEF Ogg1(-/-)) [µM] | EC50 (T98G) [µM] | EC50 (CCD841) [µM] | EC50 (A498) [µM] | EC50 (VH10) [µM] | EC50 (UO31) [µM] | EC50 (Rec1) [µM] | EC50 (SaOS2) [µM] | EC50 (M059K) [µM] | EC50 (KG1a) [µM] | further results
1 | 10.5 | 16.1 | 14.7 | 15.2 | 20.5 | 16.7 | 12.6 | 10.7 | 14.4 | O=C(Nc1ccc(Cl)c(Cl)c1)N1CCC(n2c(=O)[nH]c3c(-c4ccc(CO)nc4)cccc32)CC1 [TH5796, N-(3,4-Dichlorophenyl)-4-[4-[6-(hydroxymethyl)-3-pyridyl]-2-oxo-3H-benzimidazol-1-yl]piperidine-1-carbox amide] | 7.9 | 45.8 | 18.5 | 39.7 | 21.2 | 20.9 | 7.1 | 12.6 | 16.2 | 19.4 | 18 | EC50 (M059J): 20.6 µM; EC50 (SW480): 20.3 µM; EC50 (BJ-Tert): 24.4 µM; EC50 (HT-29): 22.6 µM; EC50 (PL-21): 10.2 µM; EC50 (PC3): 19.3 µM; EC50 (HL-60): 14.4 µM; EC50 (HeLa): 15.8 µM; EC50 (MRC5): 20.8 µM; EC50 (MV4-11): 6.5 µM; EC50 (Daudi): 10.1 µM; EC50 (Jurkat): 13.8 µM; EC50 (BJ-Ras): 15.1 µM; EC50 (LCL#2): 40.7 µM; EC50 (Reh): 14.7 µM; EC50 (LCL#1): 33.5 µM; EC50 (ACHN): 8.5 µM; EC50 (RFX393): 14.2 µM
2 | 7.9 | 25.1 | 28.6 | 33 | 23.4 | 20.3 | 17.4 | 3.1 | 16.5 | Cc1cc(NC(=O)N2CCC(n3c(=O)[nH]c4c(Br)cccc43)CC2)ccc1I [TH6943, 4-(4-Bromo-2-oxo-3H-benzimidazol-1-yl)-N-(4-iodo-3-methyl-phenyl)piperidine-1-carboxamide] | 9.8 | 34.3 | 16.7 | 54.2 | 35.1 | 47.5 | 3.2 | 14.8 | 19.8 | 27 | 18.8 | EC50 (M059J): 29.4 µM; EC50 (SW480): 29.8 µM; EC50 (BJ-Tert): 30.5 µM; EC50 (HT-29): 22 µM; EC50 (PL-21): 18.4 µM; EC50 (PC3): 28.7 µM; EC50 (HL-60): 23.9 µM; EC50 (HeLa): 34.9 µM; EC50 (MRC5): 47.1 µM; EC50 (MV4-11): 9.6 µM; EC50 (Daudi): 12.1 µM; EC50 (Jurkat): 15.2 µM; EC50 (BJ-Ras): 14.1 µM; EC50 (LCL#2): 32.3 µM; EC50 (Reh): 17.3 µM; EC50 (LCL#1): 40 µM; EC50 (ACHN): 2.8 µM; EC50 (RFX393): 11.7 µM
